Tests used:
[1] = test system: P. aeruginosa strain PAO1; assay: Rotating disk reactor (RDR) biofilm test with and without tobramycin, culturable bacteria; assay type: cell-based, Pseudomonas aeruginosa; details: average of three days; for CFU, Test Compound: no tobramycin; for CFU, Tobramycin and Test Compound: then tobramycin 100 μg/ml 2 h
Procedure: Biofilm formation of P. aeruginosa was evaluated using a standardized biofilm method with a rotating disk reactor (RDR). This method provides a model resembling the formation of biofilms in cystic fibrosis patients. The rotating disk reactor consists of a one-liter glass beaker fitted with a drain spout. The bottom of the vessel contains a magnetically driven rotor with six 1.27 cm diameter coupons constructed from polystyrene. The rotor consists of a star-head magnetic stir bar upon which a disk was affixed to hold the coupons. The vessel with the stir bar was placed on a stir plate and rotated to provide fluid shear. A nutrient solution (AB Trace Medium with 0.3 mM glucose, see Table 3 below for composition) was added through a stopper in the top of the reactor at a flow rate of 5 ml/min. The reactor volume was approximately 180 ml and varied slightly between reactors depending on the placement of the drain spout and the rotational speed of the rotor. At a volume of 180 ml, the residence time of the reactors was 36 minutes. The reactors were operated at room temperature (c.a. 26° C.).
For each test, two RDRs were operated in parallel with one receiving test compound and the other serving as an untreated control. The RDRs were sterilized by autoclave, then filled with sterile medium and inoculated with P. aeruginosa strain PAO1. The reactors were then incubated at room temperature in batch mode (no medium flow) for a period of 24 hours, after which the flow was initiated for a further 24 hour incubation. Test compounds were dissolved in 10 ml ethanol to achieve a concentration of 1.8 mg/ml. After the 48 hours of biofilm development described above, the 10 ml of ethanol containing the test compounds were added to the reactor to achieve a final concentration of approximately 50, 100, or 200 μg/ml. Control reactors received 10 ml of ethanol. The reactors were then incubated for an additional 24 hours in batch (no flow) mode. After this incubation period, the six coupons were removed from each reactor and placed in 12-well polystyrene tissue culture plates with wells containing either 2 ml of a 100 μg/ml tobramycin solution or 2 ml of phosphate-buffered saline (PBS). These plates were incubated at room temperature for two hours. The coupons were then rinsed by three transfers to plates containing 2 ml of fresh PBS. For each two RDR reactors run in parallel, four sets of three coupons were obtained: one set with no test compound treatment and no tobramycin treatment, one set with no test compound treatment and tobramycin treatment, one set treated with a test compound treatment and no tobramycin treatment, and one set treated with a test compound treatment and tobramycin. After rinsing, one coupon of each set of three was stained with a LIVE/DEAD® BacLight™ Bacterial Viability Kit (Molecular Probes, Eugene Oreg.) and imaged using epifluorescent microscopy. The remaining two coupons were placed in 10 ml of PBS and sonicated for five minutes to remove and disperse biofilm cells. The resulting bacterial suspensions were then serially diluted in PBS and plated on tryptic soy agar plates for enumeration of culturable bacteria. The plates were incubated for 24 hours at 37° C. before colony forming units (CFU) were determined.
The results are averages from experiments performed on three separate days for each test compound. The values reported are as loglo CFU.

[2] = test system: S. mutans 25175; assay: Biofilm growth inhibition in 1 mL polycarbonate tubes; assay type: cell-based; details: Streptococcus mutans, 40 μg/mL
[3] = test system: S. sobrinus 6715; assay: as above; assay type: cell-based; details: Streptococcus sobrinus, 40 μg/mL
[4] = test system: E. coli clinical strain UT189 against bladder epithelial cells; assay: Binding to and invasion of bladder epithelial cells by E. coli; assay type: cell-based; details: 40 μg/ml, 60 minutes; separate experiments (n=4 to 7)
Procedure: The effect of test compounds on bacterial invasion of E. coli clinical strain UT189 was studied as described in Elsinghorst, et al. 1994, Methods Enzymol, 236:405-420; and Martinez et al., 2000, EMBO J., 19:2803-2812. Epithelial bladder cells were grown in plates. Asiatic acid, corosolic acid, or ursolic acid were added at concentrations of 10 μg/ml, 20 μg/ml, or 40 μg/ml to bacteria and epithelial cells for approximately 5, 15, 30, or 60 minutes with approximately 10^7 CFU of E. coli. Binding was assessed at time zero and invasion was assessed at approximately 5, 15, 30, or 60 minutes from completing the mixture of compound, bacteria, and epithelial cells. As a control ethanol was added to cells to a final concentration of 0.1%. The effect of bacterial viability and bacterial adherence during the infection period was evaluated according to the methods described in Martinez et al., 2000, EMBO J., 19:2803-2812.

## C[C@H]1[C@H](C)CC[C@]2(C(=O)O)CC[C@]3(C)C(=CC[C@@H]4[C@@]5(C)C[C@@H](O)[C@H](O)[C@@](C)(CO)[C@@H]5CC[C@]43C)[C@H]12 [Asiatic acid]
[1]; test compound 50 μg/ml 24 h
  CFU, Test Compound: 7.7 loglo CFU
  CFU, Tobramycin and Test Compound: 5.3 loglo CFU
[1]; test compound 100 μg/ml 24 h
  CFU, Test Compound: 7.7 loglo CFU
  CFU, Tobramycin and Test Compound: 5.5 loglo CFU
[1]; test compound 200 μg/ml 24 h
  CFU, Test Compound: 7.5 loglo CFU
  CFU, Tobramycin and Test Compound: 5.2 loglo CFU
[2]
  inhibition at 40 µg/mL: > 75%
[3]
  inhibition at 40 µg/mL: > 75%
[4]
  reduced invasion of E. coli into bladder epithelial cells: 87%
